Measurements published in patent US20250290915A1, “METHOD FOR PREDICTING RESPONSIVENESS TO THERAPY” (CANCERTAIN LIMITED, priority 2022, published 2025).

Key:
Format in all cases: cell-based, human
[1] = tested on: Circulating Tumour Cells (CTCs) from a patient with lung cancer (adenocarcinoma); test: Drug response score assay on CTCs (with CD45+ cells for immunotherapy) from blood, Example 5; conditions: lung cancer CTCs, Table 17
Procedure: (§1) CD45^+ cells and circulating tumour cells (CTCs) were isolated from a blood sample provided by each subject.
(§2) CD45 separation was performed by adding human CD45 microbeads (50 μl/ml blood), incubating for 15 minutes at 4° C. and then processing using an AutoMACS machine. This separates the blood sample into CD45^+ and CD45^−cells in 2 separate falcons. The falcon tubes are then centrifuged at 1200 rpm for 5 minutes.
The supernatant was removed from the CD45^+falcon tube, and the cells resuspended in DMEM with 2 μl Cell Tox, 2 μl MT and 2 μl MT. 20 μl of the resuspended CD45^+ cells was then plated in each well which will contain an immunotherapy treatment.
(§3) The supernatant was removed from the CD45^−falcon tube, and the CD45^−cells contacted with 100 μl of FcR block and 100 μl of CD326 (EpCAM) MicroBeads, followed by incubation at […] 4° C. for 30 minutes. The CD45^−cells were then processed using an AutoMACS machine to separate the EpCAM positive and negative cells into 2 separate falcon tubes. The EpCAM-cells were discarded. The supernatant was removed from the EpCAM^+ cells, and the cells resuspended in DMEM with 2 μl Cell Tox, 2 μl MT and 2 μl MT. 20 μl of the resuspended pellet was then added to all sample wells excluding a blank. After all wells are added to, a cell count was conducted on the […] to determine the number of circulating tumour cells (CTCs).
(§4) The different cell types were each divided equally into populations, depending on the number of drugs/concentrations to be tested and plated on a cell-culture plate pre-coated with a scaffold of polycaprolactone (PCL) electrospun fibres and incubated at 37° C., 5% CO2, for 5 to (typically 10) minutes to facilitate cell attachment. After attachment, an initial imaging step was carried out using the RealTime-Glo™ MT assay from Promega (Catalogue No. G9711)) and the CellTox™ Green Cytotoxicity Assay (Promega, Catalogue No. G8741), carried out according to manufacturer's instructions. Following this initial imagining, the immunotherapeutic and/or chemotherapeutic agents were added to the cell populations as indicated below. After 10 minutes, the imagining step was repeated. The cell populations were then incubated at 37° C., 5% CO2 for 48 hours. The imaging step was then repeated. The cell populations were then re-dosed with the same immunotherapeutic and/or chemotherapeutic agents as indicated below, and incubated at 37° C., 5% CO2 for a further 48 hours. After this second 48 hour incubation, the imagining step was repeated for a final time.
(§5) At the end of this culture period, dose response scores were calculated using a normalized drug response metric as described in Gupta et al. (Communications Biology volume 3, Article number: 42 (2020), https://doi.org/10.1038/s42003-020-0765-z). The start readout for a given immunotherapeutic or chemotherapeutic agent at a given concentration was the to readout for said immunotherapeutic or chemotherapeutic agent at a specified concentration. The end readout for a given immunotherapeutic or chemotherapeutic agent at a given concentration was the final timepoint reading (t96h) for said immunotherapeutic or chemotherapeutic agent at a specified concentration.
(§6) The positive control start readout for a given drug/concentration was the to readout for the corresponding drug at a specified concentration. The positive control end readout for the corresponding drug at a specified concentration was the final timepoint reading (t96h) for the corresponding blank well.
(§7) The negative control start and end readouts for a given immunotherapeutic or chemotherapeutic agent at a given concentration were the to and final timepoint reading (t96h) respectively for blank cell or blank immuno cell well respectively.
The sensitivity or resistance of a subject's cancer to a given immunotherapeutic or chemotherapeutic agent was determined based on the calculated drug response score as shown in Table 2. […]

[2] = tested on: Circulating Tumour Cells (CTCs) from a patient with head and neck cancer (squamous cell carcinoma); test: Drug response score assay on CTCs from blood, Example 6; conditions: for Drug response score, conc. 1: conc. 1: Ifos 0.125 μg/ml, Gemcit 2 μg/ml, Doxo 10 ng/ml, Etop 1 μg/ml, Metho 0.5 μg/ml, Capecit 200 μg/ml, Vinor 20 μg/ml; for Drug response score, conc. 1 / Drug response score, conc. 2 / Drug response score, conc. 3 / Drug response score, conc. 4: CTCs, t96h; for Drug response score, conc. 2: conc. 2: Ifos 0.25 μg/ml, Gemcit 10 μg/ml, Doxo 30 ng/ml, Etop 4 μg/ml, Metho 1 μg/ml, Capecit 300 μg/ml, Vinor 40 μg/ml; for Drug response score, conc. 3: conc. 3: Ifos 5 μg/ml, Gemcit 20 μg/ml, Doxo 90 ng/ml, Etop 20 μg/ml, Metho 2 μg/ml, Capecit 400 μg/ml, Vinor 80 μg/ml; for Drug response score, conc. 4: conc. 4: Ifos 10 μg/ml, Gemcit 40 μg/ml, Doxo 270 ng/ml, Etop 100 μg/ml, Metho 4 μg/ml, Capecit 600 μg/ml, Vinor 200 μg/ml; for effectiveness on Circulating Tumour Cells under laboratory conditions / Drug sensitivity as calculated by the assay (interpretation of Drug Response Scores): head and neck cancer CTCs; for Drug sensitivity as calculated by the assay (interpretation of Drug Response Scores): Table 20
Procedure: as §1, §2, §3, §4, §5, §6, §7
(§8) The sensitivity or resistance of a subject's cancer to a given immunotherapeutic or chemotherapeutic agent was determined based on the calculated drug response score as shown in Table 2.
Blood samples from a patient with head and neck cancer (squamous cell carcinoma) were received on 11 Mar. 2022 and tested using a 7 drug panel.

[3] = tested on: Circulating Tumour Cells (CTCs) from a patient with colon cancer (sigmoid colon cancer); test: Drug response score assay on CTCs from blood, Example 8; set-up: key to Drug response score, conc. 1 / Drug response score, conc. 2 / Drug response score, conc. 3 / Drug response score, conc. 4: normalized drug response metric (Gupta et al. 2020)
Procedure: as §1, §2, §3
as §4, with “After” for “The different cell types were each divided equally into populations, depending on the number of drugs/concentrations to be tested and plated on a cell-culture plate pre-coated with a scaffold of polycaprolactone (PCL) electrospun fibres and incubated at 37° C., 5% CO2, for 5 to (typically 10) minutes to facilitate cell attachment. After”
as §5, §6, §7, §8
Blood samples from a patient with colon cancer (sigmoid colon cancer) were received on 8 Mar. 2022 and tested using a 9 drug panel.
Chemotherapeutic agents were tested as in Table 24.

| Compound | Drug sensitivity as calculated by the assay (interpretation of Drug Response Scores) [1] | Drug response score, conc. 1 [2] | Drug response score, conc. 2 [2] | Drug response score, conc. 3 [2] | Drug response score, conc. 4 [2] | effectiveness on Circulating Tumour Cells under laboratory conditions [2] | Drug sensitivity as calculated by the assay (interpretation of Drug Response Scores) [2] | Drug response score, conc. 1 ([3]; conc. 1 of each drug as in Table 24, CTCs, t96h) | Drug response score, conc. 2 ([3]; conc. 2 of each drug as in Table 24, CTCs, t96h) | Drug response score, conc. 3 ([3]; conc. 3 of each drug as in Table 24, CTCs, t96h) | Drug response score, conc. 4 ([3]; conc. 4 of each drug as in Table 24, CTCs, t96h) | Drug sensitivity as calculated by the assay (interpretation of Drug Response Scores) ([3]; sigmoid colon cancer CTCs, Table 26) |
| --- | --- | --- | --- | --- | --- | --- | --- | --- | --- | --- | --- | --- |
| CCC1=C[C@@H]2CN(C1)Cc1c([nH]c3ccccc13)[C@@](C(=O)OC)(c1cc3c(cc1OC)N(C)[C@H]1[C@@](O)(C(=O)OC)[C@H](OC(C)=O)[C@]4(CC)C=CCN5CC[C@]31[C@@H]54)C2 [Vinorelbine] | S++ | 0.6102 | 0.9691 | 0.4733 | 0.8073 | Sensitive S+ | Sensitive (S+) | 0.0721 | −0.6648 | 0.2340 | −0.5738 | Sensitive (S+) |
| CN(Cc1cnc2nc(N)nc(N)c2n1)c1ccc(C(=O)N[C@@H](CCC(=O)O)C(=O)O)cc1 [Methotrexate] | S++ | 0.9711 | 0.9988 | 1.0559 | 0.7375 | not effective | Resistant |  |  |  |  |  |
